In publication PMC7423924, “A fluorogenic cyclic peptide for imaging and quantification of drug-induced apoptosis” (Nature Communications, 2020):
Several values for one entry are separate records, joined by “and”; a condition that tells them apart may be missing. Equal entries are not always repeated.

B1: Annexin-FITC: FITC-labeled annexin V (protein, UniProt P08758 2-320, looked up)
Annexin A5: AQVLRGTVTDFPGFDERADAETLRKAMKGLGTDEESILTLLTSRSNAQRQEISAAFKTLFGRDLLDDLKSELTGKFEKLIVALMKPSRLYDAYELKHALKGAGTNEKVLTEIIASRTPEELRAIKQVYEEEYGSSLEDDVVGDTSGYYQRMLVVLLQANRDPDAGIDEAQVEQDAQALFQAGELKWGTDEEKFITIFGTRSVSHLRKVFDKYMTISGFQIEETIDRETSGNLEQLLLAVVKSIRSIPAYLAETLYYAMKGAGTDDHTLIRVMVSRSEIDLFNIRKEFRKNFATSLYSMIKGDTSGDYKKALLLLCGEDD
modifications: FITC label
notes: FITC-labeled annexin V

Legend:
human neutrophils = experiment: CDKi-induced, caspase-dependent neutrophil apoptosis detected with Apo-15; format: cell-based; settings: R-roscovitine 20 µM (CDKi), QVD 10 μM, single replicates Data 1-4
Method: First, we confirmed that Apo-15 could detect CDKi-induced apoptosis in vitro. […] Apo-15 staining of CDKi-induced apoptosis was also caspase-dependent as confirmed by a significant reduction in the fluorescent signal after treatment with the caspase inhibitor QVD[34] (Fig. 5a). Next, we induced ALI in vivo in mice by intratracheal administration of E. coli-derived LPS (1 μg per mouse), and the apoptotic load in the lungs relative to saline control was increased by intraperitoneal administration of CDKi AT7519[38] (Fig. 5b). In all mice, we administered Apo-15 in vivo and, 30 min later, we collected bronchoalveolar lavage fluid (BALF) together with lung tissues. BALF and lung slices from LPS-only and LPS + CDKi mice were analyzed by multiparameter flow cytometry to determine the proportion of apoptotic cells that had been stained by Apo-15 in vivo (gating strategy in Supplementary Fig. 15). […] Furthermore, we quantified the effects of CDKi-induced apoptosis in vivo by measuring the percentages of apoptotic neutrophils in total cell counts. […] We confirmed that CD45 + Ly6G+ cells labeled by Apo-15 in vivo were apoptotic by co-staining with AF647-Annexin V ex vivo (Fig. 5d). Next, we acquired fluorescence microscopy images of lung tissue sections from mice under different regimes (Fig. 5c, e). […]

[1] = set-up: method as in 2 sources, ref Table 1 ||| ref [8],[60],[19],[61],[63],[64],[66],[67] = [8]; PMID 19966809; doi:10.1038/nmeth.1405; 8. Kim YE Chen J Chan JR Langen R Engineering a polarity-sensitive biosensor for time-lapse imaging of apoptotic processes and degeneration Nat. Methods 2010 7 67 73 19966809 10.1038/nmeth.1405 PMC284 || [60]; PMID 20671723; doi:10.1038/nprot.2010.101; 60. Kim YE Chen J Langen R Chan JR Monitoring apoptosis and neuronal degeneration by real-time detection of phosphatidylserine externalization using a polarity-sensitive indicator of viability and apo || [19]; PMID 17051335; doi:10.1007/s10495-006-0282-7; 19. Aloya R Molecular imaging of cell death in vivo by a novel small molecule probe Apoptosis 2006 11 2089 2101 17051335 10.1007/s10495-006-0282-7 PMC2782107 || [61]; PMID 16317537; doi:10.1007/s00259-005-1905-x; 61. Damianovich M ApoSense: a novel technology for functional molecular imaging of cell death in models of acute renal tubular necrosis Eur. J. Nucl. Med. Mol. Imaging 2006 33 281 291 16317537 10.1007 || [63]; PMID 15113694; doi:10.1016/j.ab.2004.01.020; 63. Garcia Fernandez MI Ceccarelli D Muscatello U Use of the fluorescent dye 10-N-nonyl acridine orange in quantitative and location assays of cardiolipin: a study on different experimental models Ana; settings: cited from earlier work; for Brightness (φ × ε): Table 1, commercial probes, ref [8],[60],[19],[61],[63],[64],[66],[67]
apoptotic neutrophils = experiment: Signal-to-noise ratios in imaging of apoptotic neutrophils; format: cell-based, human; settings: apoptotic cells, excitation 488 nm, same settings; response to reviewers
Method: Signal-to-noise ratios for apoptotic neutrophils labeled with FITC-Annexin V or Apo-15 were determined after image acquisition under the same laser power and gain and analysis using ImageJ. Briefly, raw images were converted into 16-bit grayscale images and average fluorescence intensities in labeled cells and in the background were measured (≥150 points per condition). Experiments were performed in triplicate.
Supplementary Figure 14. Quantification of the fluorescence signal-to-noise (S/N) ratios in apoptotic neutrophils after staining with Apo -15 (100 nM) or FITC-Annexin V (25 nM) and image acquisition under the same experimental conditions
(excitation/emission filters: 488 nm /525 nm). Data presented as mean values±SEM (n=3-4 independent cells from 3 independent experiments). Source data are provided […]
FIT C, AlexaFluor647). […]
In imaging experiment in mice, the fluorescence signals were not found along membranes in the cells. […]
First, we have included flow cytometric data from BALs of LPS-treated mice that were not given Apo- 15, which conf irm ed the lack of green fluorescence in viable CD45+CD11c+ Annexin V− macrophages (new Supplementary Figure 15 and new Supplementary Figure 18 for the results). […]

| Molecule | Apo-15-positive cells (flow cytometry) (human neutrophils) | Brightness (φ × ε) [1] | also measured |
| --- | --- | --- | --- |
| CC(C)[C@H](NC(=O)c1ccc2ccccc2n1)C(=O)N[C@@H](CC(=O)O)C(=O)COc1c(F)cccc1F [QVD] | 3.0 and 7.0 and 2.9 and 4.0 | – | – |
| CC[C@H](CO)Nc1nc(NCc2ccccc2)c2ncn(C(C)C)c2n1 [CDKi, R-roscovitine] | 57.1 and 64.3 and 39.1 and 90.1 | – | – |
| CCCCCCCCC[n+]1c2cc(N(C)C)ccc2cc2ccc(N(C)C)cc21.[Br-] [Nonyl acridine orange] | – | 20,000 | – |
| CN(C)c1cccc2c(S(=O)(=O)N[C@@H](CSSC[C@H](NS(=O)(=O)c3cccc4c(N(C)C)cccc34)C(=O)O)C(=O)O)cccc12 [N,N′-Didansyl-L-cystin] | – | 3000 | Brightness ([1]; other environmentally-sensitive probes, ref Table 1): 3000 M⁻¹ cm⁻¹ |
| CC[N+](C)(CC)CCC[n+]1c(-c2ccccc2)c2cc(N)ccc2c2ccc(N)cc21.[I-].[I-] [PI, propidium iodide] | – | <100 | – |
| B1 | – | – | Signal-to-noise ratio (apoptotic neutrophils): ~100 fold |
